system: hypoxia-inducible endogenous VEGF expression in HeLa cells; experiment: Hypoxia-inducible endogenous VEGF expression, VEGF ELISA of conditioned media (dose-response EC50); format: cell-based; conditions: HeLa cells, hypoxic conditions (1% O2)
Method in brief: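 Secreted VEGF was quantified by ELISA against a per-assay standard curve after HeLa cells spent 24-48 h in 1% O2, 5% CO2, N2 balance with or without compound. Across a series of, e.g., seven concentrations, percentage inhibition (max 100%, min 0%) gave EC50 and CC50 values.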

Row | Structure (SMILES) | EC50
1 | CN(C)CCCOc1ccc(C2c3[nH]c4ccc(Cl)cc4c3CCN2C(=O)Oc2ccc(Cl)cc2)cc1 (centres unmarked) [Compound 479] | 40 to 200 nM

same assay, conditions: Homo sapiens, HeLa cells under hypoxic conditions

Row | Structure (SMILES) | EC50
2 | CCOC(=O)N1CCc2c([nH]c3ccc(Br)cc23)C1c1ccc(Cl)cc1 (centres unmarked) [Compound 4] | < 8 nM
3 | CCOC(=O)N1CCc2c([nH]c3ccc(F)cc23)C1c1cccc(Cl)c1 (centres unmarked) [Compound 284] | > 1000 nM
4 | COc1ccc(C2c3[nH]c4ccccc4c3CCN2C(=O)NC2CCCCC2)cc1 (centres unmarked) [Compound 295] | > 1000 nM
5 | CC(C)OC(=O)N1CCc2c([nH]c3ccc(Cl)cc23)C1c1cccc(C(F)(F)F)c1 (centres unmarked) [Compound 85] | 8 to 40 nM
6 | CCCOC(=O)N1CCc2c([nH]c3ccc(Cl)cc23)C1c1ccc(Cl)cc1 (centres unmarked) [Compound 49] | 8 to 40 nM
7 | CCOC(=O)N1CCc2c([nH]c3ccc(Cl)cc23)C1c1ccc(OCCN2CCOCC2)cc1 (centres unmarked) [Compound 279, 6-Chloro-1-[4-(2-morpholin-4-yl-ethoxy)-phenyl]-1,3,4,9-tetrahydro-b-carboline-2-carboxylic acid ethyl ester] | < 8 nM
8 | CCOC(=O)N1CCc2c([nH]c3ccc(Cl)cc23)C1c1ccccc1F (centres unmarked) [Compound 106] | 8 to 40 nM
9 | COC(=O)N1CCc2c([nH]c3ccc(Cl)cc23)C1c1ccc(C(F)(F)F)cc1 (centres unmarked) [Compound 62] | 8 to 40 nM
10 | Brc1ccc2[nH]c3c(c2c1)CCNC3c1ccc(OCc2ccccc2)cc1 (centres unmarked) [Compound 232] | > 1000 nM
11 | O=C(COc1ccc(C2c3[nH]c4ccc(Cl)cc4c3CCN2C(=O)Oc2ccccc2)cc1)Oc1ccccc1 (centres unmarked) [Compound 366] | > 1000 nM
12 | CC(C)COC(=O)N1CCc2c([nH]c3ccc(Br)cc23)C1c1ccccc1 (centres unmarked) [Compound 67] | 8 to 40 nM
13 | Brc1ccc2[nH]c3c(c2c1)CCNC3c1ccccc1 (centres unmarked) [Compound 174] | 200 to 1000 nM
14 | Cc1ccc(C2c3[nH]c4ccc(Cl)cc4c3CCN2C(=O)OC(C)C)cc1 (centres unmarked) [Compound 36] | < 8 nM
15 | COC(=O)N1CCc2c([nH]c3ccc(Cl)cc23)C1c1ccccc1F (centres unmarked) [Compound 108] | 8 to 40 nM
16 | COc1ccc(C2c3[nH]c4ccc(Cl)cc4c3CCN2C(=O)c2ccc(F)c(Cl)c2)cc1 (centres unmarked) [Compound 371] | 40 to 200 nM
17 | N#Cc1ccc(C2c3[nH]c4ccc(Cl)cc4c3CCN2C(=O)OCCCl)cc1 (centres unmarked) [Compound 12] | < 8 nM
18 | COC(=O)N1CCc2c([nH]c3ccc(Cl)cc23)C1c1ccc(OC)cc1 (centres unmarked) [Compound 43] | < 8 nM
19 | O=C(OCCCl)N1CCc2c([nH]c3ccc(Cl)cc23)C1c1ccccc1 (centres unmarked) [Compound 114] | 8 to 40 nM
20 | CC(C)OC(=O)N1CCc2c([nH]c3ccc(Cl)cc23)C1c1cccc(F)c1 (centres unmarked) [Compound 90] | 8 to 40 nM

Row | Structure (SMILES) | EC50
21 | COc1ccc(C2c3[nH]c4ccccc4c3CCN2C(=O)Nc2ccccc2)cc1 (centres unmarked) [Compound 302] | > 1000 nM
22 | Fc1ccc(C2NCCc3c2[nH]c2ccc(Cl)cc32)cc1F (centres unmarked) [Compound 215] | 200 to 1000 nM
23 | COC(=O)N1CCc2c([nH]c3ccc(Cl)cc23)C1c1ccc(OCCCn2ccnc2)cc1 (centres unmarked) [Compound 386] | < 8 nM
24 | Clc1ccc2[nH]c3c(c2c1)CCN(Cc1ccccc1)C3c1c[nH]c2ccc(Br)cc12 (centres unmarked) [Compound 273] | > 1000 nM
25 | COc1ccc(C2c3[nH]c4ccccc4c3CCN2C(=O)NC(C)C)cc1 (centres unmarked) [Compound 306] | > 1000 nM
26 | COC(=O)N1CCc2c([nH]c3ccc(Cl)cc23)C1c1ccc(Cl)cc1 (centres unmarked) [Compound 70] | 8 to 40 nM
27 | COc1ccc(C2c3[nH]c4ccc(Cl)cc4c3CCN2C(=S)SC)cc1 (centres unmarked) [Compound 384] | < 8 nM
28 | CCCOC(=O)N1CCc2c([nH]c3ccc(Cl)cc23)C1c1ccc(Br)cc1 (centres unmarked) [Compound 41] | < 8 nM
29 | CCS(=O)(=O)N1CCc2c([nH]c3ccc(Cl)cc23)C1c1ccc(OC)cc1 (centres unmarked) [Compound 189] | 200 to 1000 nM
30 | COc1ccc(C2c3[nH]c4ccc(C)cc4c3CCN2C(=O)Oc2ccc(Cl)cc2)cc1 (centres unmarked) [Compound 341] | 40 to 200 nM
31 | CCOC(=O)N1CCc2c([nH]c3ccc(Cl)cc23)C1c1ccc(OCc2ccccc2)cc1 (centres unmarked) [Compound 100] | 8 to 40 nM
32 | COC(=O)N1CCc2c([nH]c3ccc(Cl)cc23)C1c1cccc(F)c1 (centres unmarked) [Compound 84] | 8 to 40 nM
33 | ON1CCc2c([nH]c3ccc(Br)cc23)C1c1cccc(F)c1F (centres unmarked) [Compound 73] | 8 to 40 nM
34 | COc1cccc(C2NC(CO)Cc3c2[nH]c2ccccc32)c1 (centres unmarked) [Compound 318] | > 1000 nM
35 | CC(C)c1ccc(C2c3[nH]c4ccc(Cl)cc4c3CCN2C(=S)NC2CCCCC2)cc1 (centres unmarked) [Compound 335] | 40 to 200 nM
36 | CCOC(=O)N1CCc2c([nH]c3ccc(OCc4ccccc4)cc23)C1c1ccc(OC)cc1 (centres unmarked) [Compound 278] | > 1000 nM
37 | O=C(Oc1ccc(Cl)cc1)N1CCc2c([nH]c3ccc(Cl)cc23)C1c1ccc(Cl)cc1 (centres unmarked) [Compound 351] | 8 to 40 nM
38 | Clc1ccc2[nH]c3c(c2c1)CCN(Cc1ccccc1)C3c1ccncc1 (centres unmarked) [Compound 272] | > 1000 nM
39 | CCNC(=O)N1CCc2c([nH]c3ccc(Cl)cc23)C1c1ccc(OC)cc1 (centres unmarked) [Compound 172] | 200 to 1000 nM

same assay, conditions: Homo sapiens, HeLa cells, hypoxic conditions (1% O2)

Row | Structure (SMILES) | EC50
40 | CSCCC1NCCc2c1[nH]c1ccc(Cl)cc21 (centres unmarked) [Compound 497] | 40 to 200 nM
41 | O=C(Oc1ccc(F)cc1)N1CCc2c([nH]c3ccc(Cl)cc23)C1c1ccc(OCCCCCCCl)cc1 (centres unmarked) [Compound 723] | < 8 nM
42 | O=C(Oc1ccc(Cl)cc1)N1CCc2c([nH]c3ccc(Cl)cc23)C1c1ccc(OCCCCn2ccnc2)cc1 (centres unmarked) [Compound 705] | 8 to 40 nM
43 | CC(=O)N1CCN(CC(O)COc2ccc(C3c4[nH]c5ccc(Cl)cc5c4CCN3C(=O)Oc3ccc(F)cc3)cc2)CC1 (centres unmarked) [Compound 637] | < 8 nM
44 | O=C(Oc1ccc(Cl)cc1)N1CCc2c([nH]c3ccc(Cl)cc23)C1c1ccc(OCC(O)CN2CCCC2)cc1 (centres unmarked) [Compound 462] | 8 to 40 nM
45 | O=C(Oc1ccc(F)cc1)N1CCc2c([nH]c3ccc(Cl)cc23)C1c1ccc(OCCCCCCN2CCOCC2)cc1 (centres unmarked) [Compound 776] | < 8 nM
46 | O=C(Oc1ccc(Cl)cc1)N1CCc2c([nH]c3ccc(Cl)cc23)C1c1ccc(OCCCCn2cncn2)cc1 (centres unmarked) [Compound 706] | < 8 nM
47 | CCOC(=O)N1CCc2c([nH]c3ccc(Cl)cc23)C1C(C)CC (centres unmarked) [Compound 547] | 200 to 1000 nM
48 | O=C(Oc1ccc(Cl)cc1)N1CCc2c([nH]c3ccc(Cl)cc23)C1c1ccc(OCCCN2CCCC2)cc1 (centres unmarked) [Compound 429] | < 8 nM
49 | O=C(Oc1ccc(Cl)cc1)N1CCc2c([nH]c3ccc(Cl)cc23)C1c1ccc(NC2CCOCC2)cc1 (centres unmarked) [Compound 440] | < 8 nM
50 | CCOC(=O)N1CCc2c([nH]c3ccc(Br)cc23)C1c1ccc(C(=O)NCCN2CCOCC2)cc1 (centres unmarked) [Compound 488] | 40 to 200 nM
51 | COCCOc1ccc(C2c3[nH]c4ccc(Cl)cc4c3CCN2C(=O)OCC(C)C)cc1 (centres unmarked) [Compound 407] | < 8 nM
52 | COCCOCCOc1ccc(C2c3[nH]c4ccc(Cl)cc4c3CCN2C(=O)Oc2ccccc2)cc1 (centres unmarked) [Compound 670] | < 8 nM
53 | O=C(Oc1ccccc1Cl)N1CCc2c([nH]c3ccc(Cl)cc23)C1c1ccc(Cl)cc1 (centres unmarked) [Compound 589] | 40 to 200 nM
54 | CCOC(=O)N1CCc2c([nH]c3ccc(Cl)cc23)C1c1cccc(C(=O)N(C)C)c1 (centres unmarked) [Compound 520] | 200 to 1000 nM
55 | C=CCOc1ccc(C2c3[nH]c4ccc(Cl)cc4c3CCN2C(=O)OCCC)cc1 (centres unmarked) [Compound 406] | < 8 nM
56 | CCOC(=O)N1CCc2c([nH]c3ccc(Br)cc23)C1c1ccc(C(=O)N2CCN(CCCN(C)C)CC2)cc1 (centres unmarked) [Compound 560] | > 1000 nM
57 | CCOC(=O)N1CCc2c([nH]c3ccc(Cl)cc23)C1c1ccc(C(=O)N2CCC(N3CCCCC3)CC2)cc1 (centres unmarked) [Compound 531] | 200 to 1000 nM
58 | CCOC(=O)N1CCc2c([nH]c3ccc(Cl)cc23)C1c1ccc(C(=O)N2CCN(C3CCCCC3)CC2)cc1 (centres unmarked) [Compound 481] | 40 to 200 nM
59 | C=CCOc1ccc(C2c3[nH]c4ccc(Cl)cc4c3CCN2C(=O)OCc2ccccc2)cc1 (centres unmarked) [Compound 412] | < 8 nM
60 | O=C(Oc1ccc(F)cc1)N1CCc2c([nH]c3ccc(Cl)cc23)C1c1ccc(OCCCCN2CCCC2)cc1 (centres unmarked) [Compound 736] | < 8 nM

same assay, conditions: Homo sapiens, HeLa cells, hypoxic conditions (1% O2, 5% CO2)

Row | Structure (SMILES) | EC50
61 | CN1CCCC(COc2ccc(C3c4[nH]c5ccc(Cl)cc5c4CCN3C(=O)Oc3ccccc3Cl)cc2)C1 (centres unmarked) [Compound 976] | 40 to 200 nM
62 | O=C(Oc1ccccc1)N1CCc2c([nH]c3ccc(Cl)cc23)C1c1ccc(OCCCn2ccnc2)cc1 (centres unmarked) [Compound 911] | < 8 nM
63 | COc1ccc(OC(=O)N2CCc3c([nH]c4ccc(Cl)cc34)C2c2ccc(OCCCCl)cc2)cc1 (centres unmarked) [Compound 944] | 8 to 40 nM
64 | COCCN(C)CCCOc1ccc(C2c3[nH]c4ccc(Cl)cc4c3CCN2C(=O)Oc2ccc(Cl)cc2)cc1 (centres unmarked) [Compound 908] | < 8 nM
65 | O=C(Oc1ccc(Cl)cc1)N1CCc2c([nH]c3ccc(Cl)cc23)C1c1ccc(OCCCN2CCOCC2)cc1 (centres unmarked) [Compound 894] | < 8 nM
66 | CC(=O)NCC(O)COc1ccc(C2c3[nH]c4ccc(Cl)cc4c3CCN2C(=O)Oc2ccc(Cl)cc2)cc1 (centres unmarked) [Compound 847] | 8 to 40 nM
67 | Cc1cnc(NCCOc2ccc(C3c4[nH]c5ccc(Cl)cc5c4CCN3C(=O)Oc3ccc(Cl)cc3)cc2)s1 (centres unmarked) [#842] | < 8 nM
68 | O=C(Oc1ccc(Cl)cc1)N1CCc2c([nH]c3ccc(Cl)cc23)C1c1ccc(OCCCn2ccnc2)cc1 (centres unmarked) [Compound 917] | < 8 nM
69 | CC(C)(C)OC(=O)N1CCC(COc2ccc(C3c4[nH]c5ccc(Cl)cc5c4CCN3C(=O)Oc3ccc(Cl)cc3)cc2)CC1 (centres unmarked) [Compound 845] | 40 to 200 nM
70 | O=C(Oc1ccc(F)cc1)N1CCc2c([nH]c3ccc(Cl)cc23)C1c1ccc(OCCNc2nccs2)cc1 (centres unmarked) [#837] | < 8 nM
71 | COc1ccc(OC(=O)N2CCc3c([nH]c4ccc(Cl)cc34)C2c2ccc(OCCCn3cncn3)cc2)cc1 (centres unmarked) [Compound 888] | < 8 nM
72 | O=C(Oc1ccc(Cl)cc1)N1CCc2c([nH]c3ccc(Cl)cc23)C1c1ccc(OCCCN2CCN(CCO)CC2)cc1 (centres unmarked) [Compound 942] | 8 to 40 nM
73 | CCN(CC)CC(O)COc1ccc(C2c3[nH]c4ccc(Cl)cc4c3CCN2C(=O)Oc2ccc(Cl)cc2)cc1 (centres unmarked) [Compound 938] | < 8 nM
74 | COc1ccc(OC(=O)N2CCc3c([nH]c4ccc(Cl)cc34)C2c2ccc(OCCCn3ccnc3)cc2)cc1 (centres unmarked) [Compound 920] | < 8 nM

— patent publication US8076352B2, “Administration of carboline derivatives useful in the treatment of cancer and other diseases” (PTC Therapeutics, Inc., priority 2004, dated 2011)
